# Assay: Phase III trial: safety profiles, treatment completion and compliance
# Conditions: in vivo
# Method: After signing the consent form, the eligibility of each patient was verified according to the enrollment criteria by checking his/her medical records and current disease conditions. Eligible patients were stratified by tumor size (<5 cm vs. ≥5 cm) and vascular invasion (no vs. yes) and then randomized at a ratio of 1:1 within strata to receive PI-88 (160 mg/day) or a placebo by using a centralized interactive web response system (Cenduit Interactive Response Technology; Cenduit, Durham, N.C., USA).
# PI-88 or placebo was administered in a single subcutaneous injection each day for four consecutive days per week for 3 weeks out of every 4 weeks (a cycle with 4-weeks). The days of injection were the same in every administration week. After an initial training period of 1-8 days, participants self-administered the study drug at home. Participants received treatment for up to 52 weeks and were followed until 96 weeks.
# If the antiheparin antibody test was positive, the participant was asked to permanently discontinue the treatment.
# The distributional properties of continuous variables are expressed as mean t standard deviation, categorical variables are presented as frequency and percentage (%), and the survival curves of the DFS period were estimated using the Kaplan-Meier method. Baseline demographic and clinical characteristics were compared between the PI-88 and placebo groups. […]
substance,measurement,value
muparfostat [PI-88],fatal AEs during the study treatment period,No patients
